Numbering of substitutions follows the chain as printed. Starred links: 1 amine or outer side, 2 acyl side, 3 side chain; linkers in the order of their positions; H or OH if unused. Positions of bridges follow the written chain, without caps; N, C: chain ends. Non-standard residues stand in square brackets, D forms with d. Residues, ends and D or L forms follow the SMILES beside them. *: point of attachment. Leu(3R-OH,Nα-propionyl) = CCC(=O)N[C@H](C(=O)*)[C@H](O)C(C)C; X1 = CC(C)[C@@H](O[*:3])[C@H](N[*:1])C(=O)[*:2]; NMeT = CN[C@H](C(=O)O)[C@@H](C)O; dPhLac = O=C(O)[C@H](O)Cc1ccccc1; NMeA = CN[C@@H](C)C(=O)O; NMeDha = C=C(NC)C(=O)O
Key:
GαqF75G = biological target: T1, GαqF75G (Homo sapiens, UniProt P50148, F75G); experiment: Ubo-Qic sensitivity of the activation of mutant Gαq (BRET biosensor); assay type: cell-based; conditions: Gαq Phe75 to glycine; FIG. 5D
T1 construct: expressed in transfected cells; host or cells: HEK293
T1 sequence (P50148 1-359 F75G): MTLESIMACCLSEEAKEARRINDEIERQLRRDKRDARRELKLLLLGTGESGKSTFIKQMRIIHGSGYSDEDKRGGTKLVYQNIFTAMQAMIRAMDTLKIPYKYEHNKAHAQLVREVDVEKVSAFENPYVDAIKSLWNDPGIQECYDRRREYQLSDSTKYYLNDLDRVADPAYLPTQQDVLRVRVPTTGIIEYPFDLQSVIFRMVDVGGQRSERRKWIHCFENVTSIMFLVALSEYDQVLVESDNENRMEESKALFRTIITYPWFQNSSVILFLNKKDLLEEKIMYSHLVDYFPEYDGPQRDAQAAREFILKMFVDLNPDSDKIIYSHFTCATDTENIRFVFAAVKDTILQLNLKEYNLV
Description: (§1) Expression vectors: Receptors and G-proteins. The plasmid encoding AT1 R was a generous gift from Stéphane Laporte (McGill University, Montréal, Canada). Gαq, Gα11, Gα12, Gα13, Gα14, Gα15/16, GαoA, GαoB, Gαz, Gαs, Gαi1, Gαi2, Gαi3, Gβ1, TPαR, D2R and α1BAR were obtained from the cDNA Resource Center (cDNA.org). Plasmids encoding mutant Gα proteins including GαqG66K, GαqY67C and GαqF75G, were obtained by site-directed mutagenesis (PCR overlap) of the Gαq wild-type protein coding sequence using the primers depicted in Table I. The PCR fragments were digested with Acc65I+XhoI restriction enzymes and cloned in pCDNA3.1 Zeo(+) (from Invitrogen®, Carlsbad, Calif.) digested Acc65I+XhoI. […]
(§2) BRET assays in living cells. […] BRET values were then collected using a Mithras™ LB940 Multimode Microplate Reader or a TRISTAR® LB942 Multimode Microplate Reader, equipped with the following filters: 400 nm±70 nm (energy donor) and 515 nm±20 nm (energy acceptor). BRET values were determined by calculating the ratio of the light emitted by GFP (515 nm) over the light emitted by the Rluc (400 nm). To determine the % of activation (Stim as % of basal), BRET values obtained for the agonist treated cells where expressed as a percentage of the BRET values obtained with the corresponding cells treated with vehicle. […]

Gαq = biological target: T2, Gαq (Homo sapiens, UniProt P50148); experiment: G-protein inhibitor pre-treatment, TPαR/Gαq BRET biosensor response; assay type: cell-based; conditions: agonist U-46619, 100 nM Ubo-Qic for 20 minutes or 100 ng/ml pertussis toxin overnight, FIG. 5A
T2 construct: host or cells: HEK293
T2 sequence (P50148 1-359): T1 sequence (P50148 1-359 F75G) with G75F
Protocol: (§3) BRET assays in living cells. Cells seeded in 96-well plates were washed twice with Phosphate Buffered Saline (PBS), followed by Tyrode buffer addition (composition: 137 mM NaCl, 0.9 mM KCl, 1 mM MgCl2, 11.9 mM NaHCO3, 3.6 mM NaH2PO4, 25 mM HEPES, 5.5 mM Glucose and 1 mM CaCl2, pH 7.4). The cells were then treated with the different ligands or vehicle for the indicated times. The Rluc substrate, coelenterazine 400a, was added at a final concentration of 2.5 μM and cells were further incubated for an additional 5 minutes. BRET values were then collected using a Mithras™ LB940 Multimode Microplate Reader or a TRISTAR® LB942 Multimode Microplate Reader, equipped with the following filters: 400 nm±70 nm (energy donor) and 515 nm±20 nm (energy acceptor). BRET values were determined by calculating the ratio of the light emitted by GFP (515 nm) over the light emitted by the Rluc (400 nm). To determine the % of activation (Stim as % of basal), BRET values obtained for the agonist treated cells where expressed as a percentage of the BRET values obtained with the corresponding cells treated with vehicle.
(§4) G-protein inhibitors. BRET assays were performed as described previously, except that cells were pre-treated overnight at 37° C. with 100 ng/ml of pertussis toxin, or, for 20 minutes at 37° C. with 100 nM of Ubo-Qic.

Gαi1 = biological target: T3, Gαi1 (Homo sapiens, UniProt P63096); experiment: G-protein inhibitor pre-treatment, D2R/Gαi1 BRET biosensor response; assay type: cell-based; conditions: D2R/Gαi1, agonist rotigotine; 100 nM Ubo-Qic for 20 minutes or 100 ng/ml pertussis toxin overnight; FIG. 5B
T3 construct: host or cells: HEK293
Protocol: as §3, §4

Gα15/16 = biological target: T4, Gα15/16 (Homo sapiens, UniProt P30679); experiment: Ubo-Qic selectivity, TPαR-mediated G-protein activation (BRET biosensor); assay type: cell-based; conditions: U-46619 100 nM, FIG. 5C
T4 construct: host or cells: HEK293
T4 sequence (P30679 1-374): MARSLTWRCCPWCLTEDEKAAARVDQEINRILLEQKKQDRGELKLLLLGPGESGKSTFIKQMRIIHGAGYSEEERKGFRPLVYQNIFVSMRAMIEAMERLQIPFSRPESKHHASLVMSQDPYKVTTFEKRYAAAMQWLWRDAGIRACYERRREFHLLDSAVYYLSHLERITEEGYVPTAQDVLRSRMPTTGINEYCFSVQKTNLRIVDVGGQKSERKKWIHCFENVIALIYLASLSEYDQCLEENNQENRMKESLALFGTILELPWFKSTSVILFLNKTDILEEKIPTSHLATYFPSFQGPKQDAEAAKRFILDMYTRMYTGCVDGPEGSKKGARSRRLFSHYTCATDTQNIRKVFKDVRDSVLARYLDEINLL
Protocol: as §3, §4

Gα13 = biological target: T5, Gα13 (Homo sapiens, UniProt Q14344); experiment: as above; assay type: cell-based; conditions: U-46619 100 nM, FIG. 5C
T5 construct: host or cells: HEK293
T5 sequence (Q14344 1-377): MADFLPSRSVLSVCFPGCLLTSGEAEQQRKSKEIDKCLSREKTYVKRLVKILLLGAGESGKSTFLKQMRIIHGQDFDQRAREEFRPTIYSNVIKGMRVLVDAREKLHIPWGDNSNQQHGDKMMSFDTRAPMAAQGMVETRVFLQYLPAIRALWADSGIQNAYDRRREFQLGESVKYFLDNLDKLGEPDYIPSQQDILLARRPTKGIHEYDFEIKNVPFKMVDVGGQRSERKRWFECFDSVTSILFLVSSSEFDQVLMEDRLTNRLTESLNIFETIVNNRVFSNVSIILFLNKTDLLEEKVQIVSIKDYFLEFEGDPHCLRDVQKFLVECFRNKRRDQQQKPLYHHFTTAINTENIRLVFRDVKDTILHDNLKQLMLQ
Protocol: as §3, §4

Gα12 = biological target: T6, Gα12 (Homo sapiens, UniProt Q03113); experiment: as above; assay type: cell-based; conditions: U-46619 100 nM, FIG. 5C
T6 construct: host or cells: HEK293
T6 sequence (Q03113 1-381): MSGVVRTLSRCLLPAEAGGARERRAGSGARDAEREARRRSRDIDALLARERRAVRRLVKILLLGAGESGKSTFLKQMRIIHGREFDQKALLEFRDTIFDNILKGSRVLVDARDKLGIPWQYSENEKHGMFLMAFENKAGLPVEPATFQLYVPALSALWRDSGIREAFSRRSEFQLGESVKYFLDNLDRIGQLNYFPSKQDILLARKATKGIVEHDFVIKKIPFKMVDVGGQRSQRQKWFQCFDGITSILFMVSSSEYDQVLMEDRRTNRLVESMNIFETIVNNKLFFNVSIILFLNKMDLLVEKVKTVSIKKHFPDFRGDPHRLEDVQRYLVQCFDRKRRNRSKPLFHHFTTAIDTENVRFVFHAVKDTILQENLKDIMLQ
Protocol: as §3, §4

[1] = test system: Gαq substituted at position 67 (Y67C, Y67G, Y67S & Y67L); experiment: Ubo-Qic sensitivity of the activation of mutant Gαq (BRET biosensor); assay type: cell-based, human; conditions: FIG. 5D
Description: as §1, §2

[2] = biological target: T7, angiotensin II type 1 receptor (AT1R) (Homo sapiens, UniProt P30556); experiment: Ligand profiling with the βγIP-based BRET biosensor, AT1R with Gαq or Gα12; assay type: cell-based; conditions: Gα12 versus Gαq, FIG. 8C
T7 construct: host or cells: HEK293
T7 sequence (P30556 1-359): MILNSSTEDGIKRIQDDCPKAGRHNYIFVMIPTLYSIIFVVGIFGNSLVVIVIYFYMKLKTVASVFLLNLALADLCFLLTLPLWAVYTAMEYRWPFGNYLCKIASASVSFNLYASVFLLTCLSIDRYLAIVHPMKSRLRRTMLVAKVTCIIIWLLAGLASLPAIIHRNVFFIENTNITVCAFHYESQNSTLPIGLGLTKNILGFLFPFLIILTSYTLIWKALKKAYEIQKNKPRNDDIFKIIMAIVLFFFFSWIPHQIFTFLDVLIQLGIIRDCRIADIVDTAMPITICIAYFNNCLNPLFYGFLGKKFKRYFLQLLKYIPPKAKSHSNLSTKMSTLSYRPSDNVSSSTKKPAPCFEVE
Protocol: Cell culture and transfections. Human embryonic kidney 293 (HEK293) cells were maintained in Dulbecco's Modified Eagle's Medium (DMEM) supplemented with 10% fetal bovine serum, 100 unit/ml penicillin/streptomycin at 37° C. in a humidified atmosphere with 5% CO2. Two days before the experiments, HEK293 cells were transfected with the indicated plasmids using poly-ethylenimine 25-kDa linear (PEI) as a transfecting agent (at a ratio of 3 to 1, PEI/DNA) (Hamdan, Rochdi et al. 2007), and then directly seeded in 96-well plates pre-treated with poly-L-ornithine hydrobromide or Poly-D-Lysine, at a density of 35,000 cells per well (for BRET and PCA assays in living cells), or 6-well plates at a density of 1,000,000 cells per well (for BRET assays on membrane preparations).
BRET assays in living cells. […] BRET values were then collected using a Mithras™ LB940 Multimode Microplate Reader or a TRISTAR® LB942 Multimode Microplate Reader, equipped with the following filters: 400 nm±70 nm (energy donor) and 515 nm±20 nm (energy acceptor). BRET values were determined by calculating the ratio of the light emitted by GFP (515 nm) over the light emitted by the Rluc (400 nm). To determine the % of activation (Stim as % of basal), BRET values obtained for the agonist treated cells where expressed as a percentage of the BRET values obtained with the corresponding cells treated with vehicle.

T3 sequence (P63096 whole entry): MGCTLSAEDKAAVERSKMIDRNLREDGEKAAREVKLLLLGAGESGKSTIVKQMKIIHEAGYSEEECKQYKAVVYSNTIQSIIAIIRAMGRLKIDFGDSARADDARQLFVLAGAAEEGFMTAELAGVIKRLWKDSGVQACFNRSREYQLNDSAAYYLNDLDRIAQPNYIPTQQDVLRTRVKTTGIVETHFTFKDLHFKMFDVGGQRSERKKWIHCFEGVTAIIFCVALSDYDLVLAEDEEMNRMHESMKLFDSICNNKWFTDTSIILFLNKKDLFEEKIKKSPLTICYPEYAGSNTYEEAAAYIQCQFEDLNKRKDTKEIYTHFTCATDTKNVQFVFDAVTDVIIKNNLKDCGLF

Compound	inhibition of mutant Gαq activation (GαqF75G)	effect of pre-treatment on the BRET response following agonist stimulation (Gαq)	effect of pre-treatment on the biosensor BRET response after agonist incubation (Gαi1)	sensitivity of G-protein activation to the inhibitor (Gα15/16)	sensitivity of G-protein activation to the inhibitor (Gα13)	sensitivity of G-protein activation to the inhibitor (Gα12)	sensitivity of mutant Gαq activation to the inhibitor [1]	efficacy of G-protein activation relative to angiotensin II response [2]
C=C1C(=O)N[C@@H](C)C(=O)N(C)[C@@H](C)C(=O)N[C@@H]([C@H](OC(=O)[C@@H](NC(=O)CC)[C@H](O)C(C)C)C(C)C)C(=O)N(C)[C@@H]([C@@H](C)OC)C(=O)O[C@H](C(C)C)[C@H](NC(C)=O)C(=O)O[C@H](Cc2ccccc2)C(=O)N1C [Ubo-Qic, L-threonine,(3R)-N-acetyl-3-hydroxy-L-leucyl-(aR)-a-hydroxybenzenepropanoyl-2,3-idehydro-N-methylalanyl-L-alanyl-N-methyl-L-alanyl-(3R)-3-[[(2S,3R)-3-hydroxy-4-methyl-1-oxo-2-[(1-oxopropyl)amino]pentyl]oxy]-L-leucyl-N,O-dimethyl-,(7→1)-lactone (9CI)] (Ac-[X1][dPhLac][NMeDha]A[NMeA][X1](Leu(3R-OH,Nα-propionyl))[NMeT](Me); ester 1-C)	partial	completely abolished	no detectable effect	insensitive	insensitive	insensitive	resistance	
[Asp^1, Val^5, Gly^8]-AngII [DVG]								better efficacy for Gα12 activation than Gαq

From patent publication US10877036B2, “Biosensor based on Gβγ-interacting proteins to monitor G-protein activation” (priority 2014, dated 2020)
